Source: patent US20230002505A1, “TREATMENT OF THERAPY-RESISTANT HER-2 POSITIVE BREAST CANCER” (OREGON HEALTH & SCIENCE UNIVERSITY, priority 2017, published 2023)

Legend:
Assay type in all cases: cell-based, human
HCC-1954 cells = assay: In vitro proliferation of parental HCC-1954 cells after panitumumab treatment; conditions: parental HCC-1954, HER-2 positive, trastuzumab and lapatinib resistant; blocking HER-1 function
21MT1 cells = assay: In vitro proliferation of parental 21MT1 cells after panitumumab treatment; conditions: parental 21MT1, HER-2 positive, trastuzumab and lapatinib resistant; blocking HER-1 function
JimT1 cells = assay: In vitro proliferation of parental JimT1 cells after panitumumab treatment; conditions: parental JimT1, HER-2 positive, trastuzumab and lapatinib resistant; blocking HER-1 function

Measured: proliferation in vitro

Panitumumab
decreased proliferation: HCC-1954 cells | 21MT1 cells | JimT1 cells
